Article PMC5618426, “APETx4, a Novel Sea Anemone Toxin and a Modulator of the Cancer-Relevant Potassium Channel KV10.1” (Marine Drugs, 2017)
“And” between values parts separate entries of the source, which are not always exact repeats. Equal values may be shown once. “Also recorded” adds a separate entry of the source. Read-outs that look alike come from different tables or passages of the source. Positions of bridges follow the written chain, without caps; N, C: chain ends. No end group written: not given here.

What was measured:
[1] = system: hKV11.1 (hERG); assay type: cell-based, human
Experimental: (§1) For the expression of the ion channels (rNaV1.4, hNaV1.5, mNaV1.6, hKV1.1, rKV1.3, hKV1.4, hKV1.5, hKV2.1, hKV10.1a and hKV11.1,) in Xenopus oocytes, the plasmids were linearized and subsequently transcribed using the T7 or SP6 mMESSAGE-mMACHINE transcription kit (Ambion®, Carlsbad, CA, USA).
(§2) Stage V-VI Xenopus laevis oocytes were isolated by partial ovariectomy. The animals were anesthetized by a 15 min submersion in 0.1% tricaine methane sulfonate (pH 7.0). Isolated oocytes were defolliculated with 2 mg/mL collagenase.
(§3) Defolliculated oocytes were injected with 50 nL of cRNA at a concentration of 1 ng/nL using a micro-injector (Drummond Scientific®, Broomall, PA, USA). The oocytes were incubated in a solution containing (in mM): NaCl, 96; KCl, 2; CaCl2, 1.8; MgCl2, 2 and HEPES, 5 (pH 7.4), supplemented with 50 mg/L gentamycin sulfate.
(§4) Two-electrode voltage-clamp recordings were performed at room temperature (18–22 °C) using an Geneclamp 500B Voltage and Patch Clamp Amplifier (Axon Instruments, Union City, CA, USA, controlled by a Axon Digidata 1550 Low-Noise Data Acquisition System (Axon Instruments). Whole cell currents from oocytes were recorded 1–4 days after injection. The normal bath solution (ND96) composition was (in mM): NaCl, 96; KCl, 2; CaCl2, 1.8; MgCl2, 2 and HEPES, 5 (pH 7.4). The high potassium solution (HK) composition was in mM): NaCl, 2; KCl, 96; CaCl2, 1.8; MgCl2, 2 and HEPES, 5 (pH 7.4). Voltage and current electrodes were filled with 3 M KCl. Resistances of both electrodes were kept between 0.5 and 1.5 MΩ. The elicited KV1.x end KV2.1 currents were filtered at 500 Hz and sampled at 2 kHz, KV10.1 currents were filtered at 1 kHz and sampled at 2 kHz, hERG currents were filtered at 1 kHz and sampled at 10 kHz and the sodium currents were filtered at 2 kHz and sampled at 20 kHz using a four-pole low-pass Bessel filter. Leak subtraction was performed using a -P/4 protocol.
KV10.1 currents were evoked by 2 s depolarizing pulses to 0 mV from a holding potential of −90 mV. KV11.1 (hERG) peak and tail currents were generated by a 2.5 s prepulse from −90 mV to 40 mV followed by a 2.5 s pulse to −120 mV. […]
The peak and tail current of hERG were measured at different voltages by 1500 ms activating pulses from −60 mV to 55 mV in 5 mV steps from the holding potential of −90 mV, followed by a 750 ms step to −120 mV.
All electrophysiological data are presented as means ± S.E.M of n ≥ 3 independent experiments unless otherwise indicated. All data were acquired using pClamp Clampex 10.4 Molecular Devices, Downingtown, PA, USA) and analyzed using pClamp Clampfit 10.4 (Molecular Devices) and OriginPro 8 (Originlab, Northampton, MA, USA) or GraphPad Prism 6 software (GraphPad Software, Inc., San Diego, CA, USA). […]

[2] = target: hKV10.1a (hEag1) (Homo sapiens, UniProt O95259); assay: two-electrode voltage clamp, KV10.1 in Xenopus laevis oocytes; assay type: cell-based
hKV10.1a (hEag1), sequence (O95259 other isoform, or with tags, fused parts or gaps): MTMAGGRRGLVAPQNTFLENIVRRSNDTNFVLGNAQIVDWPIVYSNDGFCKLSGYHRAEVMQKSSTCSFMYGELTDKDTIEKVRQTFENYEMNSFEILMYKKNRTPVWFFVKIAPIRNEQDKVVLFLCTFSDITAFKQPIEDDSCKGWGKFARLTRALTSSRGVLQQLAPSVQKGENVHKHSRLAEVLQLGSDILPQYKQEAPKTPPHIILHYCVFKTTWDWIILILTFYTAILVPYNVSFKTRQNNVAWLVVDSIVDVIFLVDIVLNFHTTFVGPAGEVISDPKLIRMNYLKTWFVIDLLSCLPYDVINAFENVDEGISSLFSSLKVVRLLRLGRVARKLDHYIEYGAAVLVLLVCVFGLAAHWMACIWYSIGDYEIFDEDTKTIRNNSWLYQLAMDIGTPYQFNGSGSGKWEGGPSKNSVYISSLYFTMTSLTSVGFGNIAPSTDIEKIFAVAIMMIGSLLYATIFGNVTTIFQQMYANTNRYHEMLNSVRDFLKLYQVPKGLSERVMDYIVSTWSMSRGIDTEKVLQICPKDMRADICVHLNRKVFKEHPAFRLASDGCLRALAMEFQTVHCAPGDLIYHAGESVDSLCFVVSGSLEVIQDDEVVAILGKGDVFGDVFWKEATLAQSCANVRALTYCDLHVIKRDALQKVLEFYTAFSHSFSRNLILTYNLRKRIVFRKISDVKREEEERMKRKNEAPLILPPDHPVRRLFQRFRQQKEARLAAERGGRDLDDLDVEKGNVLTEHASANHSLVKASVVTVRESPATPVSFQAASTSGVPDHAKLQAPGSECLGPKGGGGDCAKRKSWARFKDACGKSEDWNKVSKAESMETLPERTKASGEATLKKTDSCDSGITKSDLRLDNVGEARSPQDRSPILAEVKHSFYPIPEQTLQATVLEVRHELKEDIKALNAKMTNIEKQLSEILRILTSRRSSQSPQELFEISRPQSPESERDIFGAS
Experimental: as §1, §2, §3, §4
KV10.1 currents were evoked by 2 s depolarizing pulses to 0 mV from a holding potential of −90 mV. KV11.1 (hERG) peak and tail currents were generated by a 2.5 s prepulse from −90 mV to 40 mV followed by a 2.5 s pulse to −120 mV. KV1.x channel currents were evoked by 500 ms depolarizations to 0 mV from a holding potential of −90 mV followed by a 500 ms pulse to −50 mV. KV2.1 currents were elicited by 500 ms pulses to +20 mV from a holding potential of −90 mV. NaV currents were evoked by a 100 ms depolarizations to 0 mV from the holding potential.
[…]. The curve was fitted with the logistic dose-response equation, y = A1−A2/1+ (IC50/[toxin])^nH + A2 where y represents the percentage of current inhibition, A1 the initial inhibition at the lowest toxin concentration (0%), A2 the final inhibition at the highest toxin concentration, IC50 the half maximal inhibitory toxin concentration and ^nH the Hill coefficient.
The voltage-dependent activation of the KV10.1 channels was investigated by 1000 ms activating steps from the holding potential −90 mV to 65 mV with 5 mV increments. The normalized current amplitudes were plotted against the corresponding pulse potentials and fitted with the Boltzmann equation, y = A1−A2/1+ e^(V−V1/2)/k + A2, where y represents the normalized current (I/Imax), A1 is the initial y-value(-∞) and A2 is the final y-value, Imax is the maximal current, V is the test voltage, V1/2 is the half-maximal voltage and k is the slope factor.
The voltage-dependent inactivation of KV10.1 channels was studied by 1.5 s prepulses from the holding potential ranging from −140 mV to 30 mV with 10 mV steps. These pulses were followed by a 0.5 s test pulse to 30 mV [17]. The normalized peak current amplitudes (I2/I2,max) measured during the test pulse and were plotted against the prepulses and fitted with the Boltzmann equation.
All electrophysiological data are presented as means ± S.E.M of n ≥ 3 independent experiments unless otherwise indicated. […]

[3] = system: Xenopus oocytes
[4] = concentration-response curve, logistic fit

“GTTCYCGKTIGIYWFGKYSCPTNRGYTGSCPYFLGICCYPVD (disulfide 4-37, 6-30, 20-38) [APETx4]” was tested, and the “hERG tail current at positive activation steps (≥0 mV)” value ([1]; 10 µM APETx4) was “tail current increased”, the “highest inhibition of hERG inward tail current” value ([1]; 10 µM APETx4, activating step to −20 mV) was 21 ± 5% and the “shift of hERG activation curve towards more positive potentials” value ([1]; 10 µM APETx4, inward tail currents, Boltzmann fit, n = 3, p < 0.05) was 7.7 ± 0.4 mV. The “selectivity KV10.1 versus hERG” value ([1]; low micromolar concentrations) was “discriminates between KV10.1 and hERG; also recorded: makes a clear distinction between KV10.1 and hERG”, the “inhibition of the outward KV10.1 current” value ([2]; 1.6 µM APETx4, 2 s pulse to 0 mV from −90 mV, ND96, pH 7.4, 18–22 °C, mean ± SEM, n = 3) was “highest activity on KV10.1” and the inhibition at 1.6 µM ([2]; 1.6 µM APETx4, 2 s pulse to 0 mV from −90 mV, ND96, pH 7.4, 18–22 °C, mean ± SEM, n = 3, read-out: inhibition of the outward KV10.1 current) was 76 ± 2%. For the same sequence, the “slope factor of activation” value ([2]; 1.6 µM APETx4, HK solution (96 mM Ko), control 15.3 ± 1.4, n = 3, NS) was 13.9 ± 0.8, the “half-maximal voltage V1/2 of activation” value ([2]; 1.6 µM APETx4, HK solution (96 mM Ko), control 41.3 ± 1.4 mV, n = 3) was 50.9 ± 0.8 mV and the “shift of V1/2” value ([2]; 1.6 µM APETx4, HK solution (96 mM Ko), n = 3, p < 0.05) was 9.6 ± 1.7 mV. For the same sequence, the “shift of the activation curve towards more positive potentials” value ([2]; 1.6 µM APETx4, ND96 (2 mM Ko), Boltzmann fit, n = 3, p < 0.05) was 17.7 ± 1.1 mV, the “slope factor k of activation” value ([2]; 1.6 µM APETx4, ND96 (2 mM Ko), control 20.7 ± 0.6 mV, n = 3, p < 0.05) was 17.2 ± 0.3 mV and the “half-maximal voltage V1/2 of activation” value ([2]; 1.6 µM APETx4, ND96 (2 mM Ko), control 26.4 ± 0.9 mV, n = 3, p < 0.05) was 44.1 ± 0.7 mV. The “rise time tr (10% to 90%)” value ([2]; 1.6 µM APETx4, control 653 ± 42 ms, n = 3, p < 0.05) was 1246 ± 96 ms, the “time constant τ of KV10.1 activation” value ([2]; 1.6 µM APETx4, exponential fit, control 376 ± 60 ms, n = 3, p < 0.05) was 1209 ± 229 ms and the “reduction of KV10.1 current, pulse to 65 mV” value ([2]; 1.6 μM APETx4, from the holding potential, non-normalized inhibited current (1-It/Ic)) was 29 ± 6%. For the same sequence, the “current reduction upon first stimulation after closed-state incubation” value ([2]; 1.6 µM APETx4, held at −90 mV for 10 min during addition, pulse to 0 mV, versus control current) was 85.2 ± 1.9%, the inhibition at 1.6 µM ([2]; 1.6 μM APETx4, non-normalized inhibited current (1-It/Ic), read-out: inhibition of KV10.1 current, pulse −90 mV to 0 mV) was 79 ± 4% and the “time constant τ of onset of inhibition (normalized current decrease)” value ([2]; 1.6 µM APETx4, one phase decay fit of I/Imax versus incubation time) was 97 ± 7 s. The “voltage dependence of current inhibition” value ([2]; 1.6 μM APETx4, reduced inhibition at more positive potentials, HK solution) was “a similar effect was observed”, the IC50 ([2]; 7 concentrations, logistic fit, 2 s pulse to 0 mV from −90 mV, ND96, mean ± SEM, n ≥ 3, read-out: IC50 for KV10.1 current inhibition) was 1010 ± 10 nM and the “inward current at negative pulse potentials” value ([2]; HK solution (96 mM Ko), after toxin addition (1.6 µM)) was “no inward currents were observed”. The Hill coefficient [2, 4] was 3.8 ± 0.3 and ~ 4, the maximal current inhibition [2, 4] was 88.3 ± 0.9% and the “inactivation properties of KV10.1” value ([2]; two-pulse protocol, prepulse −140 to 30 mV, test pulse 30 mV, control or toxin condition) was “No apparent inactivation was observed”. The “cytotoxic effect in Xenopus oocytes” value [3] was “cytotoxic effect is not observed”.
